From patent publication US8680047B2, “Fas peptide mimetics and uses thereof” (The Trustees of the University of Pennsylvania, priority 2002, dated 2014)
Positions of bridges follow the written chain, without caps; N, C: chain ends. Residues, ends and D or L forms follow the SMILES beside them. No end group written: not given here.

Assays:
[1] = biological target: T1, FasL (Homo sapiens, UniProt P48023); assay: Surface plasmon resonance (BIAcore) analysis, immobilized FasL-Flag; format: binding; conditions: FasL-Flag immobilized on sensor chip, 25° C.
T1 construct: Flag-tagged soluble human Fas ligand (FasL-Flag); purchased Kamiya Biomedical (Seattle, Wash.)
T1 sequence (P48023 130-281 limits assumed): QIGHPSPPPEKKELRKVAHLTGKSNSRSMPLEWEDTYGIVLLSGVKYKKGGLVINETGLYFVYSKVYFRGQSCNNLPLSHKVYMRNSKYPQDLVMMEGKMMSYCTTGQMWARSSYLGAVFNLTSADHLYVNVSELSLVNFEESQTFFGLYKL
Procedure: The kinetics of binding of Kp7-6, which mediated the best inhibitory activity to FasL, was performed using surface plasmon resonance (BIAcore™) analysis. […] The koff value is considered as an important indicator in the development of therapeutics with biological activity (Benveniste, M. et al. Br J Pharmacol 104, 207-221 (1991); Yiallouros, I. et al. Biochem J 331, 375-379 (1998)), and generally correlates with potent biological effects. (Moosmayer, D. et al. J Interferon Cytokine Res 16, 471-477 (1996)). […] (Berezov, A. et al. J Med Chem 44, 2565-2574 (2001)).
To assess the specificity of Kp7-6 binding interaction, Fas, FasL and TNFα were immobilized on a sensor chip. Kp7-6 bound to FasL but not to TNFα, which indicates Kp7-6 bound to FasL specifically (FIG. 3B). […] (Naismith, J. H. et al. Structure 4, 1251-1262 (1996)).
Biosensor analysis. All experiments were carried out on a BIAcore 3000 instrument (Biacore AG, Uppsala, Sweden) at 25° C. using PBS, pH 7.4, containing 0.005% surfactant P20 (Biacore AG) as the running buffer. FasL-Flag, Fas-Fc or TNFRI-Fc was immobilized on research-grade CM5 sensor chips (Biacore AG) using standard N-ethyl-N-dimethylaminopropyl carbodiimid/N-hydroxysuccinimide coupling. […] Data were analyzed with the BIA evaluation 3.0 software (Biacore AG). […]

[2] = tested on: FasL-sensitive Jurkat cells; assay: FasL-induced cytotoxicity assay in Jurkat cells ([3H]-thymidine incorporation); format: cell-based, human; conditions: for inhibition of Fas-mediated cytotoxicity: Jurkat cells stimulated with soluble FasL-Flag, various concentrations of mimetic
Procedure: To evaluate the effect of mimetics on Fas-mediated cytotoxicity, FasL-sensitive Jurkat cells were stimulated with soluble FasL-Flag fusion protein in the presence or absence of various concentrations of mimetics. The inhibitory effects of mimetics on Fas-mediated cytotoxicity were consistent with the results of the FasL-binding inhibition (FIG. 4). […] A concentration of 1 mM Kp7-6 protected more than 90% cells from Fas-mediated cytotoxicity (FIG. 4). […] Large dose of Kp7-6 was used in this experiment for better signal-to-noise ratio. To determine if mimetics derived from other binding sites would potentially be able to interact synergistically to block the Kp7 surface, Kp7 was used in combination with mimetics.
Cytotoxicity assay. Twenty microliters of Jurkat cells at 1×10^5 cells/ml were plated in 96-well U-bottom plates. FasL-Flag (120 ng/ml in culture medium) was preincubated with equal volume of peptide sample in PBS for 1 h at 37° C., and 20 μl of mixture was added to each well. After an incubation period of 24 h, each culture was pulsed with 1 μCi of [^3H]-thymidine for 24 h before harvesting on glass fiber filters. Incorporation of the ^3H-thymidine obtained with culture medium alone and with 30 ng/ml of FasL was used as reference for 100% survival and 0% survival, respectively. Survival (%) by several doses of peptides was plotted. Incorporation of the radioactive label was measured by liquid scintillation counting (Wallac, Finland) and expressed as the arithmetic mean counts per minute (cpm) of triplicate cultures.

[3] = tested on: Con A-induced hepatitis model; assay: Con A-induced hepatitis model, serum transaminase activity; format: in vivo, C57BL/6 mice; conditions: IP pretreatment 30 min before Con A iv
Procedure: The biological activity of mimetic Kp7-6 was measured in vivo. FasL induced apoptosis is one of the primary and dominant pathways by which liver cells undergo apoptosis under various conditions such as viral infection, drug toxicity and other lesions. (Kakinuma, C. et al. Toxicol Pathol 27, 412-420 (1999); Famularo, G., et al. Med Hypotheses 53, 50-62 (1999); Gantner et al. supra). […] (Zhang, H. et al. Nat Biotechnol 18, 862-867 (2000); Song, E. et al. Nat Med (2003)). The antagonistic effect of Kp7-6 in vivo was tested using the Con A-induced hepatitis model. C57BL/6 mice were pretreated intraperitoneally (IP) with anti-FasL monoclonal antibody, Fas mimetic peptides or saline. After 30 min, animals were challenged intravenously with Con A or saline. The induction of liver damage and inflammatory hepatitis was evaluated by measuring the serum activities of alanine aminotransferase (ALT) and aspartate aminotransferase (AST) 12 h after Con A treatment.
Administration of Con A and Measurement of Serum Transaminase Activity. […]
Blood samples were collected from mice at 12 h after Con A injection, and the serum was taken by centrifugation. Serum activities of alanine aminotransferase (ALT) and aspartate aminotransferase (AST) were measured by Lippi-Guidi's method (Iatrozyme TA-LQ: Dia-Iatron Inc., Tokyo, Japan). […]

Compound	inhibition of Fas-mediated cytotoxicity [2]	block of Con A-induced hepatic injury [3]	other results
N[C@@H](Cc1ccc(O)cc1)C(=O)N[C@H]1CSSC[C@@H](C(=O)N[C@@H](Cc2ccc(O)cc2)C(=O)O)NC(=O)[C@H](Cc2ccccc2)NC(=O)[C@H](Cc2c[nH]cn2)NC(=O)[C@H](CCC(=O)O)NC(=O)[C@H](CC(=O)O)NC1=O [Kp7-6, YCDEHFCY] (H-YCDEHFCY-OH; disulfide 2-7; N-terminus and C-terminus assumed)	dose-dependent inhibitory activity		koff ([1]; read-out: koff rate constant): 0.000765 s⁻¹; kon ([1]; read-out: kon rate constant): 68.5 M⁻¹ s⁻¹; cells protected from Fas-mediated cytotoxicity ([2]; 1 mM mimetic, Jurkat cells, FasL-Flag): more than 90%
YCNSTVCY (disulfide 2-7 (inferred)) [Kp1-1, exocyclic mimetic derived from Fas Kp1 loop]		did not block the hepatic injury	
YCDEQFCY (disulfide 2-7 (inferred)) [Kp7-10, exocyclic mimetic derived from Fas Kp7 loop]	dose-dependent inhibition		synergy in combination with members of the Kp4 mimetics ([2]; Fas-mediated cytotoxicity, data not shown): Neither Kp7-6 nor Kp7-10 used in combination with members of the Kp4 mimetics showed any significant synergy
YCDEHGLCY (disulfide 2-8 (inferred)) [Kp7-7, exocyclic mimetic derived from Fas Kp7 loop]		protection of mice against Con A induced liver injury	
